# Results published in patent publication US10548895B2, “Ligands that target Plasmodium sporozoite binding sites on CD81 and therapeutic methods using them” (American University In Cairo (AUC), priority 2014, dated 2020).
# “Also recorded” adds a separate entry of the source. Where two headings read alike, the source gives them in different places.
# Experiments:
# [1] = target: T1, native CD81 on Raji cells (Homo sapiens, UniProt P60033); test: Antibody neutralizing assay: inhibition of JS-81 anti-CD81 antibody binding on Raji cells (FACS); format: cell-based; conditions: for inhibition at 50 µM / inhibition at 100 µM / inhibition at 400 µM: read-out: Inhibition of JS-81 Binding (%)
# T1 construct: endogenous in cells; host or cells: Raji cells (human B cell line)
# T1 sequence (P60033 1-236): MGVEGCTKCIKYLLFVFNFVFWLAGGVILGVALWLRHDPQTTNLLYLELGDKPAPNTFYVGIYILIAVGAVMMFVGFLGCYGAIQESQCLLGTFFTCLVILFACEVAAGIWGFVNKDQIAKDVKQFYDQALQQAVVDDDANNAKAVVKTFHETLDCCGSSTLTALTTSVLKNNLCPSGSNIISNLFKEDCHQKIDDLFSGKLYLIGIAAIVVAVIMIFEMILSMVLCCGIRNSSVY
# Experimental: For antibody neutralization assay Raji cells were used, a human B cell line that expressed high amounts of CD81 on the surface (data not shown), Cells were grown in RPMI medium (10% FCS, 1% penicillin/streptomycin, 1% L-glutamine, 1% non-essential amino acids, 1% sodium pyruvate, pH 7.4, at 37° C. with 5% CO2). 2×10^5 cells were incubated with or without different concentrations (50 μM, 100 μM, 400 μM and 1 mM) of indicated inhibitor for 20 min at room temperature, subsequently 1 ul (16 ng/μl) of FITC-labeled anti CD81 antibody (BD Pharmingen, 551108) was added to the cells and incubated for 20 min (antibody titration was performed to obtain a working dilution range, data not shown). Cells were washed and analyzed by FACS (BD FACSCalibur, software: Cell Quest Pro). Mean Fluorescence Intensity MFI was calculated using Flowjo software (TreesStar, www.flowjo.com).
# CD81-LEL = target: T2, CD81-LEL (Homo sapiens, UniProt P60033); test: Surface plasmon resonance binding of ligands to immobilized CD81-LEL; conditions: for Binding (change in response units): 3 min association; for Dissociation 1 (change in response units) / Dissociation 2 (change in response units): dissociation interval
# T2 construct: A recombinant form of the CD81-LEL protein with a GST tag; gift of Dr. Shoshana Levy, Stanford University
# T2 sequence (P60033 113-201 limits assumed): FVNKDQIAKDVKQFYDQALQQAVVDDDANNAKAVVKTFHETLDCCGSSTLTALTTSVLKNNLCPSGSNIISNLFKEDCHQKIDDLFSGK
# Experimental: SPR analysis was performed using a Biacore T200 workstation (GE Healthcare, NJ, USA). A recombinant form of the CD81-LEL protein with a GST tag (generously provided by Dr. Shoshana Levy, Stanford University) was used to confirm, using an established experimental technique, the binding of several ligands to the protein. Briefly, 10 μM CD81-LEL-GST diluted into 10 mM Na-Acetate buffer pH 4.5 was immobilized for 15 min at a flow speed of 5 μl/min onto a CM5 sensor chip using amine-coupling (EDC-NHS), Approximately 20,000 RU of protein were immobilized on the chip. The ligands were prepared as 600 μM solutions in PBS-0.05% Tween-80 (the running buffer) and they were introduced to the protein using a pre-programmed 3 minute association and 1 minute dissociation interval.
# SPR analysis was performed using a Biacore T100 workstation (GE Healthcare, NJ, USA). […] Approximately 20,000 RU of protein were immobilized on the chip. The ligands were prepared as 200 uM solutions in PBS-1% DMSO (the running buffer) and they were introduced to the protein using a pre-programmed 3 min association and 1 min dissociation interval.
# Plasmodium yoelii [2] = test: Sporozoite infection assay, P. yoelii in Hepa1-6 cells; format: cell-based; conditions: for Percent Infection: Hepa1-6 Cells, Plasmodium yoelii; for percentage of infection inhibition: P. yoelii, Hepa1-6
# Plasmodium yoelii [3] = test: Sporozoite development assay, P. yoelii in HepG2-CD81 cells; format: cell-based; conditions: for Percent Infection: HepG2-CD81, Plasmodium yoelii, 400 uM compound; for effect on infection (in words) / percentage of infection inhibition: P. yoelii, HepG2-CD81
# Experimental: (§1) Anopheles stephensi mosquitoes were fed on mice infected with Plasmodium yoelii 17XNL parasites. On day 14 post bloodmeal, salivary glands were harvested, homogenized, sporozoite number was determined using a hemocytometer and the indicated number of sporozoites was added to cell monolayers, Plasmodium falciparum sporozoites were generated by membrane feeding An. stephensi mosquitoes using gametocyte cultures generated in vitro.
# (§2) HepG2-CD81 (14) cells were maintained in DMEM supplemented with 10% fetal calf serum and 1 mM glutamine (DMEM/FCS), mAb 2E6 was used for development assays and is directed against Plasmodium Hsp 70 (15) and mAb 2A10 is directed against the repeat region of P. falciparum CSP and was used for invasion assays.
# (§3) 5×10^5 HepG2-CD81 cells were plated on collagen coated Lab-Tek wells and allowed to adhere overnight. The following day, cells were preincubated with 400 uM of compound for 30 minutes at 37° C. Controls were pre-incubated with DMSO at the same concentration in which it was found in the compound solutions. 10^5 sporozoites were added to each well and in the case of P. falciparum, incubated for 1.5 hours and scored for invasion whereas in the case of P. yoelii, incubated for 44 hours and scored for exoerythrocytic stages.
# Plasmodium berghei = test: Sporozoite infection assay, P. berghei in Hepa1-6 cells; format: cell-based; conditions: for Percent Infection: Hepa1-6 Cells, Plasmodium berghei; for percentage of infection inhibition / effect on infection (in words): P. berghei; for percentage of infection inhibition: Hepa1-6; for effect on infection (in words): Hepa1-6 cells
# Plasmodium falciparum = test: Sporozoite invasion assay, P. falciparum in HepG2-CD81 cells; format: cell-based; conditions: for Percent Infection: HepG2-CD81, Plasmodium falciparum, 400 uM compound; for effect on infection (in words) / percentage of infection inhibition: P. falciparum; for percentage of infection inhibition: HepG2-CD81
# Experimental: as §1, §2, §3
SMILES,Binding (change in response units) (CD81-LEL; SPR),Dissociation 1 (change in response units) (CD81-LEL; SPR),Dissociation 2 (change in response units) (CD81-LEL; SPR),"Inhibition of JS-81 Binding (%) ([1]; 50 μM ligand, Raji cells)","Inhibition of JS-81 Binding (%) ([1]; 100 μM ligand, Raji cells)","Inhibition of JS-81 Binding (%) ([1]; 400 μM ligand, Raji cells)","inhibition at 50 µM ([1]; 50 μM ligand, Raji cells)","inhibition at 100 µM ([1]; 100 μM ligand, Raji cells)","inhibition at 400 µM ([1]; 400 μM ligand, Raji cells)",further results
"c1cncc(C2CCCC[NH2+]2)c1 (stereo in doubt) [Ligand 87504, 3-[(2S)-piperidin-2-yl]pyridine]",72 response units,57.9 response units,42.6 response units,,,,,,,inhibition at 50 µM ([1]; Raji): 0%; inhibition at 100 µM ([1]; Raji): 6%; inhibition at 400 µM ([1]; Raji): 20%; binding-dissociation behavior (in words) (CD81-LEL; SPR): best binding and dissociation; also recorded: most desirable binding-dissociation behavior; also recorded: best binding-dissociation behavior
CC(C)(C)c1ccc(NS(=O)(=O)c2ccc(N)cc2)cc1 [Ligand 7436],,,,0%,12%,11%,,,,
CCC(C)(C)c1ccc(Oc2cccc(C(=O)O)c2)cc1 [Ligand 7962],43.6 response units,14.7 response units,10.1 response units,,,,0%,0%,19%,Percent Infection (Plasmodium yoelii [2]): 0%; percentage of infection inhibition (Plasmodium yoelii [2]): 100%; Percent Infection (Plasmodium yoelii [3]): 0%; effect on infection (in words) (Plasmodium yoelii [3]): inhibit; also recorded: strongest inhibitory effect; percentage of infection inhibition (Plasmodium yoelii [3]): 100%; Percent Infection (Plasmodium berghei): 0%; percentage of infection inhibition (Plasmodium berghei): 100%; effect on infection (in words) (Plasmodium berghei): Inhibition; Percent Infection (Plasmodium falciparum): 0%; effect on infection (in words) (Plasmodium falciparum): inhibit the infection; percentage of infection inhibition (Plasmodium falciparum): 100%
O=C(O)c1ccc(N2CCCCC2)cc1O [Ligand 23895],,,,0%,0%,17%,,,,
Cc1ccc(-c2cc(C(=O)O)c3ccccc3n2)c(C)c1 [Ligand 25678],,,,0%,4%,19%,,,,
"O=C(O)c1cc2cc(OCc3ccccc3)ccc2[nH]1 [Ligand 30930, 5-phenylmethoxy-1H-indole-2-carboxylic acid]",38.6 response units,26.8 response units,21.8 response units,,,,0%,0%,14%,
NC(N)=N/N=C\c1c(Cl)cccc1Cl [Ligand 68982],,,,0%,13%,15%,,,,
"COc1cc(-c2ccc(Nc3ccccc3C(=O)O)c(OC)c2)ccc1Nc1ccccc1C(=O)O [Ligand 73735, 2-[4-[4-(2-carboxylatoanilino)-3-methoxyphenyl]-2-methoxyanilino]benzoate]",,,,,,,0%,0%,24%,inhibition of anti-CD81 binding (in words) ([1]; 100 uM and 400 uM): inhibit anti-CD81 binding to CD81-LEL in a dose dependent manner; binding to CD81 by SPR (in words) (CD81-LEL): bind to CD81-LEL; Percent Infection (Plasmodium yoelii [2]): 38.3%; percentage of infection inhibition (Plasmodium yoelii [2]): 61.7%; Percent Infection (Plasmodium yoelii [3]): 23%; effect on infection (in words) (Plasmodium yoelii [3]): inhibit; also recorded: inhibitory effect; percentage of infection inhibition (Plasmodium yoelii [3]): 77%; Percent Infection (Plasmodium berghei): 17.7%; percentage of infection inhibition (Plasmodium berghei): 82.3%; effect on infection (in words) (Plasmodium berghei): Inhibition; Percent Infection (Plasmodium falciparum): 3.2%; effect on infection (in words) (Plasmodium falciparum): inhibit the infection; percentage of infection inhibition (Plasmodium falciparum): 96.8%
CNC1(C(N)=O)CCNCC1 [Ligand 75846],,,,0%,0%,52%,,,,
